Measurements published in ChEMBL document CHEMBL1770115, “Fused heterocyclic M1 positive allosteric modulators” (Bioorg Med Chem Lett, 2011).
Activity calls are given as the source filed them. The calls are words filed in the database; no cut-off is given here.

Legend:
[1] = target: T1, Muscarinic acetylcholine receptor M1 (Homo sapiens) (UniProt P11229); test: Positive allosteric modulation of human muscarinic M1 receptor expressed in CHO cells assessed as effect on acetylcholine-induced calcium mobilization by FLIPR assay; format: functional, cell-based
T1 sequence (whole entry): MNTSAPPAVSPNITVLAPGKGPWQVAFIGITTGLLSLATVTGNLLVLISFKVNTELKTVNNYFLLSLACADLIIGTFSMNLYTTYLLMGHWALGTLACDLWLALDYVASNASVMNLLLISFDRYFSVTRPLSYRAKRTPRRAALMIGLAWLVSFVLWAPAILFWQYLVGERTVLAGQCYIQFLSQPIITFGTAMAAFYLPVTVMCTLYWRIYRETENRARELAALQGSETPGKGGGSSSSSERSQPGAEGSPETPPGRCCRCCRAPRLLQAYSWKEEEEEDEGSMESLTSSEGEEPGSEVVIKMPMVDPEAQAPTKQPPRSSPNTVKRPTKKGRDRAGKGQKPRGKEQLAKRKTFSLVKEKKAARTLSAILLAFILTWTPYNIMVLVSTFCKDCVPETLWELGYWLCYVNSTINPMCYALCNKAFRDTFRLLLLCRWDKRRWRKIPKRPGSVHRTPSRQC

[2] = Ratio of drug level in brain to plasma in Sprague-Dawley rat at 10 mg/kg, po; format: ADME, organism-based; set-up: dose 10 mg/kg, route oral
Plasma = test: Plasma concentration in Sprague-Dawley rat at 10 mg/kg, po; format: ADME, organism-based; set-up: dose 10 mg/kg, route oral; settings: in vivo
Brain = test: Drug concentration in Sprague-Dawley rat barin at 10 mg/kg, po; format: ADME, organism-based; set-up: dose 10 mg/kg, route oral; settings: in vivo, read-out: Drug uptake
Cerebrospinal fluid = test: Drug concentration in Sprague-Dawley rat cerebrospinal fluid at 10 mg/kg, po; format: ADME, organism-based; set-up: dose 10 mg/kg, route oral; settings: in vivo, read-out: Drug uptake
[3] = target: T1, Muscarinic acetylcholine receptor M1 (Homo sapiens); test: Agonist activity at human muscarinic M1 receptor expressed in CHO cells assessed as increase of calcium mobilization at 100 uM by FLIPR assay; format: functional, cell-based
[4] = target: T1, Muscarinic acetylcholine receptor M1 (Homo sapiens); test: Positive allosteric modulation of human muscarinic M1 receptor expressed in CHO cells assessed as potentiation of acetylcholine-induced calcium mobilization at 1 uM by FLIPR assay relative to control; format: functional, cell-based

Structure (SMILES) | IP [1] | further results
O=C(O)c1cn(Cc2ccc3[nH]c(=O)[nH]c3c2)c2cccc(F)c2c1=O | 617 nM | –
N#Cc1ccc(/C=C/Cn2cc(C(=O)O)c(=O)c3cccc(F)c32)cc1 | 1000 nM | –
CN1CCN(C)c2cc(Cn3cc(C(=O)O)c(=O)c4c(F)cccc43)ccc21 | 3800 nM | –
CN(C)c1ccc(/C=C/Cn2cc(C(=O)O)c(=O)c3cccc(F)c32)cc1 | 860 nM | –
O=C(O)c1cn(Cc2ccc3c(c2)CCC3O)c2cccc(F)c2c1=O (configuration not stated) | 97 nM | –
O=C1Cc2cc(Cn3cc(C(=O)O)c(=O)c4c(F)cccc43)ccc2N1 | 81 nM | –
O=C(O)c1cn(C/C=C/c2ccc(F)cc2)c2c(F)cccc2c1=O | 120 nM | –
Cn1cc2cc(Cn3cc(C(=O)O)c(=O)c4c(F)cccc43)ccc2n1 | 142 nM | –
Cn1ncc2cc(Cn3cc(C(=O)O)c(=O)c4c(F)cccc43)ccc21 | 72 nM | Kp [2]: 0.04; concentration (Plasma): 13200 nM; concentration (Brain): 538 nM; concentration (Cerebrospinal fluid): 155 nM
Cc1ccc(/C=C/Cn2cc(C(=O)O)c(=O)c3cccc(F)c32)cc1 | 910 nM | –
O=C(O)c1cn(C/C=C/c2cccnc2)c2c(F)cccc2c1=O | > 10000 nM | –
O=C(O)c1cn(C/C=C/c2ccncc2)c2c(F)cccc2c1=O | 610 nM | –
COc1cccc(/C=C/Cn2cc(C(=O)O)c(=O)c3cccc(F)c32)c1 | 1400 nM | –
CN1CCCc2cc(Cn3cc(C(=O)O)c(=O)c4c(F)cccc43)ccc21 | 624 nM | –
O=C(O)c1cn(Cc2ccc3c(c2)OCCO3)c2cccc(F)c2c1=O | 84 nM | Kp [2]: 0.15; concentration (Plasma): 3700 nM; concentration (Brain): 577 nM; concentration (Cerebrospinal fluid): 119 nM
O=C(O)c1cn(Cc2nc3ccccc3s2)c2cccc(F)c2c1=O | 1800 nM | –
CN1CCc2cc(Cn3cc(C(=O)O)c(=O)c4c(F)cccc43)ccc21 | > 10000 nM | –

Further lines, with some results ahead:

IP [1] | Structure (SMILES) | further results
3400 nM | O=C(O)c1cn(CC#Cc2ccccc2)c2c(F)cccc2c1=O | –
897 nM | O=C(O)c1cn(Cc2ccc3ccccc3n2)c2cccc(F)c2c1=O | –
380 nM | COc1ccc(/C=C/Cn2cc(C(=O)O)c(=O)c3cccc(F)c32)cc1 | –
> 10000 nM | Cc1ccccc1/C=C/Cn1cc(C(=O)O)c(=O)c2cccc(F)c21 | –
270 nM | O=C(O)c1cn(C/C=C/c2ccccc2)c2c(F)cccc2c1=O | –
240 nM | O=C(O)c1cn(C/C=C/c2ccccc2F)c2c(F)cccc2c1=O | –
> 10000 nM | COc1ccccc1/C=C/Cn1cc(C(=O)O)c(=O)c2cccc(F)c21 | –
69 nM | O=C(O)c1cn(Cc2ccc3ccccc3c2)c2cccc(F)c2c1=O | Kp [2]: 0.26; concentration (Plasma): 676 nM; Activity [3]: Active; concentration (Brain): 178 nM; fold change (FC) [4]: 100; concentration (Cerebrospinal fluid): 18 nM
250 nM | Cc1cccc(/C=C/Cn2cc(C(=O)O)c(=O)c3cccc(F)c32)c1 | –
266 nM | O=C(O)c1cn(Cc2ccc3ccccc3c2)c2c(F)ccc(F)c2c1=O | –
459 nM | O=C(O)c1cn(Cc2ccc3ncccc3c2)c2cccc(F)c2c1=O | –
320 nM | O=C(O)c1cn(C/C=C/c2ccc(Cl)cc2)c2c(F)cccc2c1=O | –
80 nM | O=C(O)c1cn(Cc2ccc3ccccc3c2)c2c(F)cccc2c1=O | –
104 nM | O=C(O)c1cn(Cc2ccc3[nH]ncc3c2)c2cccc(F)c2c1=O | –
5200 nM | O=C(O)c1cn(C/C=C/c2ccccn2)c2c(F)cccc2c1=O | –
370 nM | O=C(O)c1cn(C/C=C/c2cccc(F)c2)c2c(F)cccc2c1=O | –
